Data as given in publication PMC9796130, “The First Structure of Human MTHFD2L and Its Implications for the Development of Isoform‐Selective Inhibitors” (Chemmedchem, 2022).

Target: T1, MTHFD2L (Homo sapiens, UniProt Q9H903)
T1 construct: amino acids 50–347, His-tagged
T1 sequence (Q9H903 50-347): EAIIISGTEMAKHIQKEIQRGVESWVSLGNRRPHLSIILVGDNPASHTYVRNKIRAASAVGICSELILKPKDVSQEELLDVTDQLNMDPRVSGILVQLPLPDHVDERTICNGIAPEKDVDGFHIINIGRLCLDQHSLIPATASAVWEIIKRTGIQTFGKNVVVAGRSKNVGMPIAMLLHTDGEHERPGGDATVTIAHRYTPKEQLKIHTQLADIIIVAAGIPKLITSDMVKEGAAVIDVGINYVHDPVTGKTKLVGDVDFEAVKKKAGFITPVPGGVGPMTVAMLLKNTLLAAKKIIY
Test: X-ray co-crystal structure ([…] Å); IC50 on purified enzyme by NAD(P)H-Glo luminescence assay
Assay type: biochemical

Nc1nc(N)c(NC(=O)Nc2ccc(C(=O)NC(CCC(=O)O)C(=O)O)cc2)c(O)n1 (stereo not shown) [TH7299]
IC50: 174 nM
